This is an account of results in US20200247897A1, “THERAPEUTIC ANTIBODIES BASED ON MUTATED IGG HEXAMERS” (GENMAB B.V., priority 2017, published 2020).

Assay [1] concerns BxPC-3 pancreatic cancer cells. The assay is described as follows: 3-days CellTiter-Glo viability assay, BxPC-3. As to conditions: Z-VAD-FMK 5 μM.
Assay [2] has as its system BxPC-3 pancreatic cancer cells. The experiment in a line: Caspase-Glo 3/7 assay, BxPC-3. The class given is cell-based, human. The note with it: 26.6 nM; 1, 2, 4 to 6 hours.
Assay [3] relates to colon, pancreatic, gastric, lung and skin cancer cell lines. The experiment in a line: 3-days CellTiter-Glo viability assay, panel of different human cancer cell lines. The class given is cell-based. The note with it: 133 nM; 11 cell lines (Example 41). For orientation: ATP-based viability assays read luminescence as a measure of living cells.

In the case of “TRAIL: natural DR5 ligand, recombinant human TRAIL/APO-2L”, in assay [1], the “viability of BxPC-3 cells in presence of pan-caspase inhibitor Z-VAD-FMK” value is reported as “inhibited in the presence of pan-caspase inhibitor Z-VAD-FMK”. Further, in assay [2], the caspase-3/7 activation entry is “more rapid and more potent caspase-3/7 activation”. In addition, the “killing of human cancer cell lines” value in assay [3] is reported as “show killing of human cancer target cell lines originating from different indications”.
